The results in this text go back to patent publication US20180153840A1, “THE COMPOSITIONS OF GLYCEROL AND /OR NON-TOXIC AMINO ACIDS FOR INHIBITING AND DESTROYING BIOFILM, INCLUDING RELATED METHODS” (priority 2015, published 2018).

Test [1] relates to S. aureus biofilm. Description: Bacterial biofilm inhibition assay. The conditions noted are these: for activation at 1 %: Staphylococcus aureus, read-out: Promote B Biofilm. The class given is cell-based, Staphylococcus aureus. The procedure:
(§1) For fungal biofilm assays, all solutions were prepared in RPMI 1640 medium. All bacterial biofilm solutions were prepared in Trypic Soy Broth (TSB), supplemented with 1% glucose (henceforth referred to as TSB-G). All subsequent procedures were performed in a manner that maintained sterility. A solution of each amino acid to be tested was prepared in weight to volume concentrations ranging from 0.1-5.0%. Amino acids were also tested in combinations. Compound solutions were homogenized with gentle agitation in the dark (4° C., 24 hours) before use.
(§2) All biofilm assays were performed using 384-well non-tissue culture treated polystyrene plates. The fungal species tested are as follows: Candida albicans, Candida guilliermondii Candida parapsilosis, Candida glabrata, Candida tropicalis and Candida dubliniensis. The bacterial species tested are as follows: Staphylococcus aureus (standard wild type and methicillin-resistant strain USA300), Escherichia coli, Pseudomonas aeruginosa and Staphylococcus epidermidis.
(§3) Bacterial strains were streaked on Blood Agar plates (5% sheep blood in Tryptic Soy Broth) and incubated at 37° C. for 24 hours. A single colony from each strain to be tested was inoculated in a TSB broth and grown for 12 hours, at 37° C. with shaking (225 rpm).
(§4) For the bacterial biofilm inhibition assays, 1 μL of saturated overnight cell culture was added to either 80 μL of TSB-G, or TSB-G supplemented with the amino acid compound solution to be tested, in a 384-well plate. The cells were allowed to adhere to the plate for 60 minutes at 37° C. without shaking. The media was carefully aspirated and 80 μL of TSB-G, or TSB-G supplemented with the amino acid compound solution was added to the plate. The plate was further incubated for 24 hours at 37° C. without shaking. Media was carefully aspirated and the biofilm was measured for bacterial cell concentration by optical density at 600 nm. Eight or twelve replicates were performed for each tested condition and the reported values were normalized to the control (TSB-G media only).

For test [2], the system named is S. aureus biofilm. Description: Bacterial biofilm disruption assay. The note with it: Staphylococcus aureus; for inhibition at 1 %: read-out: Reduce B Biofilm; for activation at 1 %: read-out: Promote B Biofilm. It counts as cell-based. As for the experimental part:
as §1, §2, §3
(§5) For the bacterial biofilm disruption assays, 80 μL of TSB-G was added to the plate, along with 1 μL of overnight cell culture. The cells were allowed to adhere to the plate for 60 minutes at 37° C. without shaking. The media was carefully aspirated and 80 μL of TSB-G was added to the plate. The plate was further incubated for 24 hours at 37° C. without shaking. Media was carefully aspirated from the mature biofilm and 80 μL of TSB-G, or TSB-G supplemented with the amino acid to be tested, was gently added to the plate. The plate was further incubated for 24 hours at 37° C. without shaking. Media was aspirated and the biofilm was measured for bacterial cell concentration by optical density at 600 nm. Twelve replicates were performed for each tested condition and the reported values were normalized to the control (TSB-G media only).

A further test deals with bacterial biofilms. Kind of test: Bacterial biofilm assays (sustained inhibition and/or disruption). The class given is cell-based, Staphylococcus aureus. The note with it: for anti-biofilm properties against bacterial biofilms: individually, about 0.1 to about 5.0% weight to volume (cystathionine 0.2%), at least one of the two assays; for support (improve) bacterial biofilm growth: based on the two assays (sustained inhibition and/or disruption). The procedure: as §1, §2, §3, §4, §5

Test [3] has as its system bacterial and fungal biofilms. Description: In vitro testing on bacterial and fungal biofilms. It counts as cell-based. The conditions noted are these: for neutral, effect on bacterial or fungal biofilms: both assays (sustained inhibition and disruption); for effect on bacterial and fungal biofilm (in words): in vitro. As for the experimental part: as §1, §2
Fungal strains were streaked on Yeast Peptone Dextrose (YPD) agar plates and incubated at 30° C. for 48 hours. A single colony from each strain to be tested was inoculated into YPD broth and grown for 12 hours, at 30° C., shaking at 225 rpm. For the fungal biofilm inhibition assay, 1 μl of saturated overnight cell culture was added to either 80 μL of RPMI-1640 or RPMI-1640 supplemented with the amino acid compound solution to be tested, in a 384-well plate. The cells were allowed to adhere to the plate for 90 minutes at 37° C. with shaking (350 rpm). Loosely bound cells were washed once with phosphate buffered saline (PBS) and 80 ul of RPMI-1640, or RPMI-1640 supplemented with the amino acid compound solution was added to the plate. The plate was further incubated for 24 hours at 37° C. with shaking (350 rpm). Media was carefully aspirated and the biofilm was measured for fungal cell concentration by optical density at 600 nm. Twelve replicates were performed for each tested condition and the reported values were normalized to the control (RPMI-1640 media only).
For the fungal biofilm disruption assays, 80 μL of RPMI-1640 was added to the plate, along with 1 μL of overnight cell culture. The cells were allowed to adhere to the plate for 90 minutes at 37° C. with shaking (350 rpm). Loosely bound cells were washed once with PBS and 80 μL of RPMI-1640 was added to the plate. The plate was further incubated for 24 hours at 37° C. with shaking (350 rpm). Media was carefully aspirated from the mature biofilm and 80 μL of RPMI-1640, or RPMI-1640 supplemented with the amino acid compound solution to be tested, was gently added to the plate. The plate was further incubated for 24 hours at 37° C. with shaking (350 rpm). Media was carefully aspirated and the biofilm was measured for fungal cell concentration by optical density at 600 nm. Twelve replicates were performed for each tested condition and the reported values are normalized to the control (RPMI-1640 media only).
as §3
as §4, with “nm.” for “nm. Eight or twelve replicates were performed for each tested condition and the reported values were normalized to the control (TSB-G media only).”

Where [4] appears, read: sustained inhibition assay, S. aureus, 1% amino acid, p≤0.001.
Where [5] appears, read: disruption assay, S. aureus, 1% amino acid, p≤0.001.

Entries after “also recorded” stand apart in the source; their conditions may differ.

As for `NC(CCCC(=O)O)C(=O)O` (centres unmarked) [2 Aminoadipic Acid, 2-aminoadipic acid], in the test on S. aureus biofilm [1] (setting [4]), the “Reduce B Biofilm” value was “• (a single dot (●) signifies an effect in a range of about 10 to about 30% change)”. The inhibition at 1 % with S. aureus biofilm [2] (setting [5]) lay in the range of 10 to 30%. Besides, in the test with bacterial biofilms, the “anti-biofilm properties against bacterial biofilms” value (“anti-biofilm properties” below) is on record as “anti-biofilm properties against bacterial biofilms”.

As to `CCC(N)C(=O)O` (centres unmarked) [2 Aminobutyric Acid, 2-aminobutyric acid], the “neutral, effect on bacterial or fungal biofilms” value (“neutral, effect” for short) in test [3] was “no effect on bacterial or fungal biofilms”.

For the compound `C[C@H](N)C(=O)O` [Alanine, L-alanine], the activation at 1 % with S. aureus biofilm [2] (setting [5]) is 10 to 30%. For the same compound, the “support (improve) bacterial biofilm growth” value (shortened to “support”) in the test on bacterial biofilms is listed as “support (improve) bacterial biofilm growth”. In addition, the “effect on bacterial and fungal biofilm (in words)” value (shortened to “effect … (in words)”) in test [3] was “promote bacterial and fungal biofilm”.

On to `N=C(N)NCCC[C@H](N)C(=O)O` [Arginine, L-arginine], for which the activation at 1 % in the test with S. aureus biofilm [1] and in the test with S. aureus biofilm [2] was 10 to 30% throughout. For the same compound, the “support” value in the test on bacterial biofilms is “support (improve) bacterial biofilm growth”. For the same compound, the “effect … (in words)” value in test [3] was “promote bacterial and fungal biofilm”.

Turning to `NC(=O)C[C@H](N)C(=O)O` [Asparagine, L-asparagine], the activation at 1 % in the test on S. aureus biofilm [1] (setting [4]) is 10 to 30%. Besides, the “support” value in the test on bacterial biofilms is reported as “support (improve) bacterial biofilm growth”.

In the case of `NCCC(=O)O` [Beta-Alanine, Beta-alanine], the “Reduce B Biofilm” value with S. aureus biofilm [1] (setting [4]) was “• (a single dot (●) signifies an effect in a range of about 10 to about 30% change)”. For the same compound, the “anti-biofilm properties” value in the test with bacterial biofilms was “anti-biofilm properties against bacterial biofilms”.

In the case of `NC(=O)NCCC[C@H](N)C(=O)O` [Citrulline, L-citrulline], the activation at 1 % in the test with S. aureus biofilm [1] and with S. aureus biofilm [2] was 10 to 30% throughout. Further, the “support” value with bacterial biofilms is listed as “support (improve) bacterial biofilm growth”.

With `NC(=O)CC[C@H](N)C(=O)O` [Glutamine, L-glutamine], in test [3], the “neutral, effect” value was “no effect on bacterial or fungal biofilms”.

Regarding `NCC(=O)O` [Glycine, L-glycine], the activation at 1 % in the test on S. aureus biofilm [1] (setting [4]) and in the test with S. aureus biofilm [2] (setting [5]) was 10 to 30% throughout. Also, the “support” value in the test on bacterial biofilms is “support (improve) bacterial biofilm growth”. The “effect … (in words)” value in test [3] was “promote bacterial and fungal biofilm”.

As to `N[C@@H](Cc1c[nH]cn1)C(=O)O` [Histidine, L-histidine], the “neutral, effect” value in test [3] is reported as “no effect on bacterial or fungal biofilms”.

With `CC[C@H](C)[C@H](N)C(=O)O` [Isoleucine, L-isoleucine], the activation at 1 % with S. aureus biofilm [2] (setting [5]) fell in the range of 10 to 30%. Moreover, in the test on bacterial biofilms, the “support” value was “support (improve) bacterial biofilm growth”. Further, the “effect … (in words)” value in test [3] was “promote bacterial and fungal biofilm”.

`CC(C)C[C@H](N)C(=O)O` [Leucine, L-leucine]: the activation at 1 % with S. aureus biofilm [1] (setting [4]) and in the test with S. aureus biofilm [2] (setting [5]) was 10 to 30% in each case. Further, the “support” value with bacterial biofilms is recorded as “support (improve) bacterial biofilm growth”. The “effect … (in words)” value in test [3] is “promote bacterial and fungal biofilm”.

In the case of `NCCCC[C@H](N)C(=O)O` [Lysine, L-lysine], the activation at 1 % in the test on S. aureus biofilm [1] and with S. aureus biofilm [2] was 10 to 30% throughout. Further, the “support” value with bacterial biofilms is given as “support (improve) bacterial biofilm growth”. In addition, the “effect … (in words)” value in test [3] is “promote bacterial and fungal biofilm”.

`CSCC[C@H](N)C(=O)O` [Methionine, L-methionine]: the activation at 1 % in the test on S. aureus biofilm [1] (setting [4]) lay within 10 to 30%. Moreover, the “support” value in the test with bacterial biofilms is reported as “support (improve) bacterial biofilm growth”. In addition, the “effect … (in words)” value in test [3] is “promote bacterial and fungal biofilm”.

As to `NCCC[C@H](N)C(=O)O` [Ornithine, L-ornithine], the activation at 1 % with S. aureus biofilm [2] (setting [5]) was in the range of 10 to 30%. The “support” value in the test on bacterial biofilms is listed as “support (improve) bacterial biofilm growth”.

Take `N[C@@H](Cc1ccccc1)C(=O)O` [Phenylalanine, L-phenylalanine]: the activation at 1 % in the test with S. aureus biofilm [1] (setting [4]) and in the test with S. aureus biofilm [2] (setting [5]) was 10 to 30% each time. Also, the “support” value in the test on bacterial biofilms is “support (improve) bacterial biofilm growth”. Also, in test [3], the “effect … (in words)” value is “promote bacterial and fungal biofilm”.

As for `NCCOP(=O)(O)O` [Phosphoethanolamine, O-phosphoethanolamine], the “Reduce B Biofilm” value in the test on S. aureus biofilm [1] (setting [4]) is listed as “• (a single dot (●) signifies an effect in a range of about 10 to about 30% change)”. Moreover, in the test on S. aureus biofilm [2] (setting [5]), the inhibition at 1 % lay in the range of 10 to 30%. Further, the “anti-biofilm properties” value with bacterial biofilms was “anti-biofilm properties against bacterial biofilms”.

Consider `O=C(O)[C@@H]1CCCN1` [Proline, L-proline], for which the activation at 1 % in the test with S. aureus biofilm [2] (setting [5]) is 10 to 30%. The “support” value with bacterial biofilms is recorded as “support (improve) bacterial biofilm growth”. In addition, the “effect … (in words)” value in test [3] was “promote bacterial and fungal biofilm”.

With `NCCS(=O)(=O)O` [Taurine, L-taurine], the activation at 1 % in the test with S. aureus biofilm [1] (setting [4]) and in the test on S. aureus biofilm [2] (setting [5]) was 10 to 30% in each case. Besides, the “support” value with bacterial biofilms is “support (improve) bacterial biofilm growth”.

On to `C[C@@H](O)[C@H](N)C(=O)O` [Threonine, L-threonine], for which, in the test with S. aureus biofilm [1] (setting [4]), the activation at 1 % was in the range of 10 to 30%. The “support” value with bacterial biofilms is listed as “support (improve) bacterial biofilm growth”. For the same compound, the “effect … (in words)” value in test [3] is “promote bacterial and fungal biofilm”.

In the case of `N[C@@H](Cc1c[nH]c2ccccc12)C(=O)O` [Tryptophan, L-tryptophan], the activation at 1 % with S. aureus biofilm [1] lay within 10 to 30%. Also, in the test on bacterial biofilms, the “support” value is given as “support (improve) bacterial biofilm growth”. In test [3], the “effect … (in words)” value was “promote bacterial and fungal biofilm”.

For `N[C@@H](Cc1ccc(O)cc1)C(=O)O` [Tyrosine, L-tyrosine], in test [3], the “neutral, effect” value is listed as “no effect on bacterial or fungal biofilms”; the “effect … (in words)” value is on record as “neutral effect on biofilm”.

As for `OCC(O)CO` [glycerol], the “effect … (in words)” value in test [3] is reported as “no measurable effect; also recorded: not found to have antibiofilm effect”.
